Patent US20110275577A1, “METHODS OF TREATING DERMATOLOGIC, GYNECOLOGIC, AND GENITAL DISORDERS WITH CAFFEIC ACID ANALOGS” (Moleculin, LLC, priority 2010, published 2011)

Tested on: psoriasis patients
Experiment: Human Psoriasis Study of WP1220 and CABE (pilot study)
Type: in vivo
Conditions: topical treatment; psoriasis patients not responsive to current standard therapies
Protocol: Human Psoriasis Study of WP1220 and CABE—The compounds WP1220 and CABE were tested in a pilot study of psoriasis patients who were not responsive to current standard therapies.

Structure (SMILES) | patients responded with substantial improvement or complete resolution of psoratic lesions
O=C(/C=C/c1ccc(O)c(O)c1)OCc1ccccc1 [CABE, (E)-Benzyl 3-(3,4-dihydroxyphenyl)acrylate] | five out of seven
C[C@H](NC(=O)/C(C#N)=C/C=C/c1cccc(Br)n1)c1ccccc1 [WP1220, (2E,4E)-5-(6-bromopyridin-2-yl)-2-cyano-N—((S)-1-phenylethyl)penta-2,4-dienamide] | seven out of seven
